Like-named read-outs stand apart in the source and are kept apart here.
Key:
[1] = test system: Abl; conditions: read-out: IC50 Abl; cited from earlier work
[2] = Pharmacokinetics of a single intraperitoneal dose in mice; format: in vivo, C57BL/6J mice; conditions: for CNS penetrance (in words): Fig. 8 summary of kinetics profiling in animal models; for time after administration at which agents are completely washed out of the brain: IP administration; for Tmax: brain and plasma; for Kp: brain/plasma
[3] = test system: DDR1/2; conditions: read-out: IC50 DDR1/2; cited from earlier work
[4] = test system: SRC; conditions: cited from earlier work; for IC50: read-out: IC50 SRC
[5] = test system: PDGFR-β; conditions: cited from earlier work; for IC50: read-out: IC50 PDGFR-β
[6] = test system: A53T mice; test: α-Synuclein, HVA and dopamine levels in transgenic A53T mice; format: in vivo, mouse
[7] = test system: APP mice; test: Aβ and tau levels in transgenic APP mice; format: in vivo, mouse; conditions: 3 consecutive weeks; for Insoluble human Aβ vs DMSO (in words): p < 0.01, 0.001
[8] = test system: PDGFR-α; conditions: cited from earlier work
[9] = test system: rat B35 neuroblastoma transfected with Aβ42; test: Aβ42 ELISA in Aβ42-transfected B35 neuroblastoma cells; format: cell-based; conditions: 10 µM, 24 h
[10] = test system: DDR2; conditions: read-out: IC50 DDR2; cited from earlier work
[11] = test system: c-Kit; conditions: read-out: IC50 c-Kit; cited from earlier work
[12] = male, C57BL/6J, mouse, ip, 5 mg/kg
[13] = male, C57BL/6J, mouse, plasma, ip, 5 mg/kg
[14] = 4- to 7-month-old APP mice, 10 mg/kg IP
[15] = male, C57BL/6J, mouse, ip, 10 mg/kg
[16] = male, C57BL/6J, mouse, plasma, ip, 10 mg/kg
[17] = single IP dose 1.25 mg/kg, mice
[18] = 12-month-old A53T mice, 5 mg/kg IP once daily, 3 consecutive weeks

Row | SMILES | CNS penetrance (in words) [2] | time after administration at which agents are completely washed out of the brain ([2]; mice) | Tmax [2, 12] | Kp [2, 12] | AUC [2, 13] | Cmax [2, 13] | AUC Brain ([2]; single IP dose 5 mg/kg, mice) | C max Brain ([2]; single IP dose 5 mg/kg, mice) | Tmax [2, 15] | AUC [2, 16] | Cmax [2, 16] | IC50 [1] | IC50 [3] | IC50 [4] | inhibition of Src [4] | IC50 [5] | effect on total tau levels (in words) [7, 14] | Insoluble human Aβ vs DMSO (in words) [7, 14] | IC50 ([8]; read-out: IC50 PDGFR-α) | IC50 [11] | also measured
1 | COc1cc(Nc2c(C#N)cnc3cc(OCCCN4CCN(C)CC4)c(OC)cc23)c(Cl)cc1Cl [Bosutinib] | medium-to-high | […] | […] | […] | 51.7 µM·h | 19.4 µM | 1.996 | 0.918 µM | – | – | – | […] | > 4900 nM | […] | – | – | – | – | – | – | –
2 | Cc1cn(-c2cc(NC(=O)c3ccc(C)c(Nc4nccc(-c5cccnc5)n4)c3)cc(C(F)(F)F)c2)cn1 [Nilotinib] | – | – | – | – | – | – | – | – | 1 h | 174 µM·h | 33.7 µM | […] | < 6 nM | – | do not appear to inhibit Src | < 60 nM | no effect | significantly decreased | < 71 nM | – | reduction of phospho-tau (ser396) compared with DMSO [7, 14]: 28%; Aβ42 (ELISA) in Aβ42-transfected B35 cells (in words) [9]: reduce Aβ42; IC50 [10]: […]
3 | Oc1cccc(Nc2ccnc3cc(-c4cccc(CN5CCOCC5)c4)sc23)c1 [LCB-03-0110] | – | – | – | – | – | – | – | – | – | – | – | > 1000 nM | 6 nM | 1.3 nM | – | 409 nM | – | – | 69 nM | 591 nM | Cmax ([2]; read-out: C max Plasma, single IP dose 1.25 mg/kg, mice): 2.35 µM; Cmax ([2]; read-out: C max Plasma, single IP dose 2.5 mg/kg, mice): 3.65 µM; AUC Brain [2, 17]: 0.2302; AUC Plasma [2, 17]: 2.805; C max Brain [2, 17]: 0.245 µM; Ratio (%) brain to plasma [2, 17]: 10%; T max Time [2, 17]: 1 h; AUC Brain ([2]; single IP dose 2.5 mg/kg, mice): 0.3152; AUC Plasma ([2]; single IP dose 2.5 mg/kg, mice): 6.482; C max Brain ([2]; single IP dose 2.5 mg/kg, mice): 0.445 µM; Ratio (%) brain to plasma ([2]; single IP dose 2.5 mg/kg, mice): 12%; T max Time ([2]; single IP dose 2.5 mg/kg, mice): 1 h

Now from value to compound, other results behind:

Row | CNS penetrance (in words) [2] | time after administration at which agents are completely washed out of the brain ([2]; mice) | Tmax [2, 12] | Kp [2, 12] | AUC [2, 13] | Cmax [2, 13] | AUC Brain ([2]; single IP dose 5 mg/kg, mice) | C max Brain ([2]; single IP dose 5 mg/kg, mice) | Tmax [2, 15] | AUC [2, 16] | Cmax [2, 16] | SMILES | IC50 [1] | IC50 [3] | IC50 [4] | inhibition of Src [4] | IC50 [5] | effect on total tau levels (in words) [7, 14] | Insoluble human Aβ vs DMSO (in words) [7, 14] | IC50 ([8]; read-out: IC50 PDGFR-α) | IC50 [11] | also measured
4 | high | 4 to 5 h | 1 h | 0.12 | 69.5 µM·h | 19.4 µM | 4.193 | 2.362 µM | – | – | – | Cc1ccc(NC(=O)c2ccc(CN3CC[C@H](N(C)C)C3)c(C(F)(F)F)c2)cc1Nc1nccc(-c2cncnc2)n1 [Bafetinib] | 5.8 nM | 220 nM | 1700 nM | do not appear to inhibit Src | – | – | – | – | – | affinity to PDGFRβ [5]: no affinity; levels of α-syn measured via ELISA (in words) ([6]; A53T mice, 10, 5 or 2.5 mg/kg IP daily): did not reduce; ELISA homovanillic acid and dopamine measurements (in words) ([6]; A53T mice, bafetinib treatment IP daily): remain unchanged; reduction of the level of soluble Aβ40 compared to DMSO ([7]; APP mice, 5 mg/kg IP): 9%; reduction in the insoluble Aβ42 compared with DMSO ([7]; APP mice, 5 mg/kg IP, not significant): 17%; total tau levels compared with DMSO-treated APP mice (in words) ([7]; APP mice, bafetinib 5 mg/kg or LCB 2.5 mg/kg IP): significant reduction; IC50 ([8]; read-out: IC50 to PDGFRα): 56 nM
5 | medium-to-high | 4 to 5 h | – | – | – | – | – | – | 1 h | 83.3 µM·h | 24.4 µM | Cc1cn(-c2cc(NC(=O)c3ccc(C)c(Nc4nccc(-c5cnccn5)n4)c3)cc(C(F)(F)F)c2)cn1 [Radotinib] | 34 nM | < 180 nM | > 2000 nM | do not appear to inhibit Src | 130 nM | no effect | significantly decreased | 75.5 nM | > 1300 nM | α-syn levels, ELISA, compared to DMSO [6, 18]: no difference; α-syn levels, Western blot, compared to DMSO [6, 18]: no change; effect on phosphorylated tau levels (in words) [7, 14]: no effect; Kp [2, 15]: 0.05; AUC Brain ([2]; single IP dose 10 mg/kg, mice): 1.839; C max Brain ([2]; single IP dose 10 mg/kg, mice): 1.004 µM

Source: article PMC6544596 (Drugs in R&D, 2019)
